Measured values taken from PMC9791819 (Biochemistry and Biophysics Reports, 2022).

Experiments:
BiCMKEngA = target: T1, BiCMKEngA (Bifidobacterium longum, UniProt A0ACD7UKP5); assay: isothermal titration calorimetry; format: binding; conditions: 10 mM Tris pH 8.0, 300 mM NaCl, 50 mM MgCl2, 25 °C; with or without 1 mM CMP
T1 sequence (A0ACD7UKP5 1-709): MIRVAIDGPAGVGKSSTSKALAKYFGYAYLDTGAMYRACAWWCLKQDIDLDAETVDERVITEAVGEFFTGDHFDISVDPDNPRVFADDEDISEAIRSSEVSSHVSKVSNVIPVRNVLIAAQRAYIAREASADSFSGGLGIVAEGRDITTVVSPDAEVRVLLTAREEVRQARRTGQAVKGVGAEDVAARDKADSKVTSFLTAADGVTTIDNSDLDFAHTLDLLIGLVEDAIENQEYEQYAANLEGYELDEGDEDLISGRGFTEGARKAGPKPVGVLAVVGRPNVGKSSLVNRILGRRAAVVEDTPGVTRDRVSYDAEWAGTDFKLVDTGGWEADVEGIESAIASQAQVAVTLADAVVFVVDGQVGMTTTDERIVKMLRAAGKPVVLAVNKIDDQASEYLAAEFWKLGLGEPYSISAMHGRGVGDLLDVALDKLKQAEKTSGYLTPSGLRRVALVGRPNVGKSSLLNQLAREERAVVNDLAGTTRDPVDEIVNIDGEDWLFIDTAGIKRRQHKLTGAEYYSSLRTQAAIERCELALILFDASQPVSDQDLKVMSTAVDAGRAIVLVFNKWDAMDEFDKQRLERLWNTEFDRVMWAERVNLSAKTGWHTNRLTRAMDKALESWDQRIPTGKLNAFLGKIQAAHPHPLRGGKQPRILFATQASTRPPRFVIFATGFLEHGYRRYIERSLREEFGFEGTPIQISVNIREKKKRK

BiEngA = target: T2, BiEngA (Bifidobacterium longum, UniProt A0ACD7UKP5); assay: isothermal titration calorimetry; format: binding; conditions: 10 mM Tris pH 8.0, 300 mM NaCl, 50 mM MgCl2, 25 °C
T2 sequence (A0ACD7UKP5 222-709 limits assumed): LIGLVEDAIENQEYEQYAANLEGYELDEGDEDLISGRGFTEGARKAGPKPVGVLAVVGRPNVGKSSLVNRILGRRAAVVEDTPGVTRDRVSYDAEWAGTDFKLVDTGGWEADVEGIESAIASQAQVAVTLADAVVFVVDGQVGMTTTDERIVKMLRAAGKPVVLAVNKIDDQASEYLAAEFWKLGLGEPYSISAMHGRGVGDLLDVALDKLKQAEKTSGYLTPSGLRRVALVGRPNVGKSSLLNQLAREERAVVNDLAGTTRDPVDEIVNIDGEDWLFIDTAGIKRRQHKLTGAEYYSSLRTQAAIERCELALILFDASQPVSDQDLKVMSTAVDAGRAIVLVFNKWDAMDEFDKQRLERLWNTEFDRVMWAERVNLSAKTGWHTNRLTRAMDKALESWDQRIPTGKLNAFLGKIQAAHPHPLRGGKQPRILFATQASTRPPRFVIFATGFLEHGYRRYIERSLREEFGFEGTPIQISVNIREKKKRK

For Nc1ncnc2c1ncn2[C@@H]1O[C@H](COP(=O)(O)OP(=O)(O)OP(=O)(O)O)[C@@H](O)[C@H]1O [ATP], the KD (BiCMKEngA) was “Relative dissociation constants of the full length and individual domains for ATP and GTP”.
With Nc1nc2c(ncn2[C@@H]2O[C@H](COP(=O)(O)OP(=O)(O)OP(=O)(O)O)[C@@H](O)[C@H]2O)c(=O)[nH]1 [GTP] the KD (BiEngA) was “the KD values for GTP, as determined from ITC experiments, were of the similar order”.
